From patent publication US8618151B2, “Inhibitors of HCV NS5A” (Presidio Pharmaceuticals, Inc., priority 2008, dated 2013) come the findings set out here.

The assay relates to HCV genotype 1b replicon. Nature of the assay: HCV replicon assay (1b_Huh-Luc/Neo-ET cell line, luciferase readout). In kind it is cell-based. Particulars: Hepatitis C virus, Huh-7, 72 h, read-out: Inhibition of HCV genotype 1b. In outline: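 Luciferase activity (Bright-Glo) after 72 h compound exposure, in triplicate, measured replicon levels in Huh 7-derived 1b_Huh-Luc/Neo-ET cells. EC50 was fitted from percent-of-control values and determined in repeat runs.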
In general terms: A replicon is a self-replicating genome or part of one, used to study replication in cells.
Turning to `COC(=O)N[C@H](C(=O)N1CCC[C@H]1c1nc(-c2cnc3cc(-c4ccc(-c5cnc([C@@H]6CCCN6C(=O)[C@@H](NC(=O)OC)C(C)C)[nH]5)cc4F)ccc3c2)c[nH]1)C(C)C` [compound 57], the EC50 is less than 1 nM.

Take `COC(=O)N[C@H](C(=O)N1CCC[C@H]1c1nc2ccc(-c3ccc4cc(-c5cnc([C@@H]6CCCN6C(=O)[C@@H](NC(=O)OC)C6CCOCC6)[nH]5)cnc4c3)cc2[nH]1)C(C)C` [compound 191]: the EC50 was less than 1 nM. As for `COC(=O)N[C@H](C(=O)N1CCC[C@H]1c1ncc(-c2ccc(-c3cccc4c(-c5cnc([C@@H]6CCCN6C(=O)[C@@H](NC(=O)OC)C(C)C)[nH]5)cccc34)cc2)[nH]1)C(C)C` [compound 20], the EC50 is less than 1 nM. On to `COC(=O)N[C@H](C(=O)N1CCC[C@H]1c1ncc(-c2ccc(-c3nc4ccc(-c5cnc([C@@H]6CCCN6C(=O)[C@@H](NC(=O)OC)C(C)C)[nH]5)cc4o3)cc2)[nH]1)C(C)C` [compound 234], for which the EC50 is less than 1 nM. `COC(=O)N[C@H](C(=O)N1CCC[C@H]1c1ncc(-c2ccc3cc(-c4ccc(-c5cnc([C@@H]6CCCN6C(=O)[C@H](NC(=O)OC)c6ccccc6)[nH]5)cc4F)ncc3c2)[nH]1)C(C)C` [compound 152]: the EC50 was less than 1 nM. Take `COC(=O)N[C@H](C(=O)N1CCC[C@H]1c1ncc(-c2ccc(-c3ccc4cc(-c5c[nH]c([C@@H]6CCCN6C(=O)[C@@H](c6ccccc6)N(C)C)n5)ccc4c3)cc2)[nH]1)C(C)C` [compound 6]: the EC50 is less than 1 nM.

With `COC(=O)N[C@H](C(=O)N1CCC[C@H]1c1nc2ccc(-c3ccc4cc(-c5cnc([C@@H]6CCCN6C(=O)[C@H](NC(=O)OC)c6ccccc6)[nH]5)ccc4c3)cc2[nH]1)C(C)C` [compound 179], the EC50 was less than 1 nM. `COC(=O)N[C@H](C(=O)N1CCC[C@H]1c1ncc(-c2ccc3cc(-c4ccc(-c5cnc([C@@H]6CCCN6C(=O)[C@@H](c6ccccc6)N6CCOCC6)[nH]5)cc4)ccc3c2)[nH]1)C(C)C` [compound 116]: the EC50 is less than 1 nM. In the case of `COC(=O)N[C@H](C(=O)N1CCOC[C@H]1c1ncc(-c2ccc(-c3ccc4cc(-c5cnc([C@@H]6CCCN6C(=O)[C@H](NC(=O)OC)c6ccccc6)[nH]5)ccc4c3)cc2)[nH]1)C(C)C` [compound 137] it was less than 1 nM; in that of `COC(=O)N[C@H](C(=O)N1CCC[C@H]1c1ncc(-c2ccc3nc(-c4ccc5nc([C@@H]6CCCN6C(=O)[C@@H](NC(=O)OC)C(C)C)[nH]c5c4)ccc3c2)[nH]1)C(C)C` [compound 193], less than 1 nM; in that of `COC(=O)N[C@H](C(=O)N1CCC[C@H]1c1ncc(-c2ccc3nc(-c4ccc(-c5cnc([C@@H]6CCCN6C(=O)[C@H](NC(=O)OC(C)(C)C)c6ccccc6)[nH]5)cc4)oc3c2)[nH]1)C(C)C` [compound 254], less than 1 nM. As to `COC(=O)N[C@H](C(=O)N1CCC[C@H]1c1ncc(-c2ccc(-c3ccc4cc(-c5cnc([C@@H]6CCCN6C(=O)[C@@H](NC(=O)OC)C6CCOCC6)[nH]5)ccc4n3)cc2F)[nH]1)C(C)C` [compound 123], the EC50 is less than 1 nM. With `COC(=O)N[C@H](C(=O)N1CCC[C@H]1c1nc(-c2ccc3cc(-c4ccc(-c5cnc([C@@H]6CCCN6C(=O)[C@H](NC(=O)NC6CC6)c6ccccc6)[nH]5)cc4)ccc3c2)c[nH]1)C(C)C` [compound 24], the EC50 was less than 1 nM. For `COC(=O)N[C@H](C(=O)N1CCC[C@H]1c1ncc(-c2ccc3cc(-c4ccc5nc([C@@H]6CCCN6C(=O)[C@@H](NC(=O)OC)C(C)C)[nH]c5c4)ncc3c2)[nH]1)C(C)C` [compound 204], the EC50 is less than 1 nM.

Take `COC(=O)N[C@H](C(=O)N1CCC[C@H]1c1ncc(-c2ccc(-c3ccc4cc(-c5c[nH]c([C@@H]6CCCN6C(=O)[C@@H](NC(=O)OC)C6CCOCC6)n5)cnc4c3)c(F)c2)[nH]1)C(C)C` [compound 59]: the EC50 is less than 1 nM. In the case of `COC(=O)N[C@H](C(=O)N1CCC[C@H]1c1ncc(-c2ccc3cc(-c4ccc5nc([C@@H]6CCCN6C(=O)[C@@H](NC(=O)OC)C6CCOCC6)[nH]c5n4)ccc3c2)[nH]1)C(C)C` [compound 202], the EC50 was less than 1 nM. In the case of `COC(=O)N[C@H](C(=O)N1C[C@H](O)C[C@H]1c1ncc(-c2ccc(-c3ccc4cc(-c5cnc([C@@H]6CCCN6C(=O)[C@H](NC(=O)OC)c6ccccc6)[nH]5)ccc4n3)cc2)[nH]1)C(C)C` [compound 148] it was less than 1 nM; in that of `COC(=O)N[C@H](C(=O)N1CCC[C@H]1c1ncc(-c2ccc(-c3ccc4cc(-c5c[nH]c([C@@H]6CCCN6C(=O)[C@H](NC(=O)OC(C)(C)C)c6ccccc6)n5)ccc4n3)cc2)[nH]1)C1CCOCC1` [compound 91], less than 1 nM. As for `COC(=O)N[C@H](C(=O)N1CCC[C@H]1c1nc(-c2ccc3cc(-c4ccc(-c5cnc([C@@H]6CCCN6C(=O)[C@H](NC(=O)OC)c6ccccc6)[nH]5)cn4)ccc3c2)c[nH]1)C(C)C` [compound 56], the EC50 is less than 1 nM.

On to `COC(=O)N[C@H](C(=O)N1CCC[C@H]1c1ncc(-c2ccc(-c3ccc4cc(-c5c[nH]c([C@@H]6CCCN6C(=O)[C@H](NC(=O)OC(C)(C)C)c6ccccc6)n5)ccc4n3)cn2)[nH]1)C(C)C` [compound 70], for which the EC50 was less than 1 nM.

`COC(=O)N[C@H](C(=O)N1CCC[C@H]1c1ncc(-c2ccc3cc(-c4ccc(-c5cnc([C@@H]6CCCN6C(=O)[C@H](NC(=O)OC6CCOCC6)c6ccccc6)[nH]5)cc4F)ncc3c2)[nH]1)C(C)C` [compound 153]: the EC50 was less than 1 nM. In the case of `COC(=O)N[C@H](C(=O)N1CCC[C@H]1c1ncc(-c2ccc(-c3ccc4cc(-c5cnc([C@@H]6CCCN6C(=O)[C@@H](NC(=O)OC)C6CCOCC6)[nH]5)ccc4c3)c(F)c2)[nH]1)C1CCOCC1` [compound 141] it was less than 1 nM. `COC(=O)N[C@H](C(=O)N1CCC[C@H]1c1nc2ccc3cc(-c4ccc5cc(-c6cnc([C@@H]7CCCN7C(=O)[C@H](NC(=O)OC7CCOCC7)c7ccccc7)[nH]6)ccc5n4)ccc3c2[nH]1)C(C)C` [compound 299]: the EC50 is less than 1 nM. For `COC(=O)N[C@H](C(=O)N1CCC[C@H]1c1ncc(-c2ccc(-c3ccc4cc(-c5c[nH]c([C@@H]6CCCN6C(=O)[C@@H](NC(=O)OC)C6CCOCC6)n5)ccc4c3)cc2)[nH]1)C(C)C` [compound 47], the EC50 was less than 1 nM.

On to `COC(=O)N[C@H](C(=O)N1CCC[C@H]1c1nc(-c2ccc3cc(-c4ccc(-c5cnc([C@@H]6CCCN6C(=O)[C@H](NC(=O)OC)c6ccccc6)[nH]5)nc4)ccc3c2)c[nH]1)C(C)C` [compound 63], for which the EC50 is less than 1 nM.

For `CNC(=O)N[C@@H](C(=O)N1CCC[C@H]1c1ncc(-c2ccc(-c3ccc4cc(-c5c[nH]c([C@@H]6CCCN6C(=O)[C@@H](NC(=O)OC)C(C)C)n5)ccc4n3)cc2)[nH]1)c1ccccc1` [compound 31], the EC50 is less than 1 nM.

Take `CCNC(=O)N[C@@H](C(=O)N1CCC[C@H]1c1ncc(-c2ccc(-c3ccc4cc(-c5c[nH]c([C@@H]6CCCN6C(=O)[C@@H](NC(=O)OC)C(C)C)n5)ccc4c3)cc2)[nH]1)c1ccccc1` [compound 27]: the EC50 is less than 1 nM. On to `COC(=O)N[C@H](C(=O)N1CCC[C@H]1c1ncc(-c2ccc3cc(-c4ccc5nc([C@@H]6CCCN6C(=O)[C@@H](NC(=O)OC)[C@@H](C)O)[nH]c5c4)ccc3c2)[nH]1)[C@@H](C)O` [compound 175], for which the EC50 was less than 1 nM. With `COC(=O)N[C@H](C(=O)N1CCC[C@H]1c1ncc(-c2ccc3cc(-c4ccc5nc([C@@H]6CCCN6C(=O)[C@@H](NC(=O)OC)C6CCOCC6)[nH]c5c4)ncc3c2)[nH]1)C1CCOCC1` [compound 217] the figure was 1 to 9.9 nM; with `COC(=O)N[C@H](C(=O)N1CCC[C@H]1c1ncc(-c2cnc3cc(-c4ccc5nc([C@@H]6CCCN6C(=O)[C@H](NC(=O)OC)c6ccccc6)[nH]c5c4)ccc3c2)[nH]1)C(C)C` [compound 188], 1 to 9.9 nM. `COC(=O)N[C@@H](C(=O)N1CCC[C@H]1c1nc(-c2cnc3cc(-c4ccc(-c5cnc([C@@H]6CCCN6C(=O)[C@H](NC(=O)OC)c6ccccc6)[nH]5)cn4)ccc3c2)c[nH]1)c1ccccc1` [compound 80]: the EC50 is less than 1 nM. As for `COC(=O)N[C@H](C(=O)N1CCC[C@H]1c1ncc(-c2ccc(-c3ccc4cc(-c5c[nH]c([C@@H]6CCCN6C(=O)[C@H](NC(=O)OC)c6ccccc6)n5)ccc4c3)c(F)c2)[nH]1)C(C)C` [compound 67], the EC50 is less than 1 nM. Turning to `COC(=O)N[C@H](C(=O)N1CCC[C@H]1c1nc(-c2ccc3cc(-c4ccc(-c5cnc([C@@H]6CCCN6C(=O)[C@@H](NC(=O)OC)C6CCOCC6)[nH]5)nc4)ccc3c2)c[nH]1)C(C)C` [compound 84], the EC50 was less than 1 nM. Turning to `COC(=O)N[C@H](C(=O)N1CCC[C@H]1c1ncc(-c2ccc(-c3ccc4cc(-c5cnc([C@@H]6CCCN6C(=O)[C@H](NC(=O)OC(C)(C)C)c6ccccc6)[nH]5)ccc4n3)c(F)c2)[nH]1)C1CCOCC1` [compound 136], the EC50 is less than 1 nM. With `COC(=O)N[C@@H](C)C(=O)N1CCC[C@H]1c1nc2ccc(-c3ccc4cc(-c5ccc6nc([C@@H]7CCCN7C(=O)[C@H](C)NC(=O)OC)[nH]c6c5)ccc4c3)cc2[nH]1` [compound 278] the figure was less than 1 nM. With `COC(=O)N[C@H](C(=O)N1CCOC[C@H]1c1ncc(-c2ccc3cc(-c4ccc(-c5cnc([C@@H]6CCCN6C(=O)[C@H](NC(=O)OC)c6ccccc6)[nH]5)cc4)ccc3c2)[nH]1)C(C)C` [compound 138] the figure was less than 1 nM; with `COC(=O)N[C@H](C(=O)N1CCC[C@H]1c1nc2ccc(-c3ccc4cc(-c5cnc([C@@H]6CCCN6C(=O)[C@@H](c6ccccc6)N(C)C)[nH]5)ccc4c3)cc2[nH]1)C(C)C` [compound 182], less than 1 nM. With `CC(C)(C)OC(=O)N1CCCC1c1ncc(C23CCC(c4ccc5cc(-c6c[nH]c([C@@H]7CCCN7C(=O)OC(C)(C)C)n6)ccc5n4)(CC2)CC3)[nH]1` (stereo partly drawn) [compound 268] the figure was 10 to 999 nM.

Take `COC(=O)N[C@H](C(=O)N1CCC[C@H]1c1nc(-c2ccc3cc(-c4ccc(-c5cnc([C@@H]6CCCN6C(=O)[C@@H](NC(=O)OC)C(C)C)[nH]5)cc4)cnc3c2)c[nH]1)C(C)C` [compound 21]: the EC50 was less than 1 nM.
